`COC(=O)C1=C(O)c2c(c3ccccc3n2C)S(=O)(=O)N1C` returned a melting point of 189 to 190 °C.
Turning to `CCc1ccc(OCC(=O)N(Cc2nc(-c3cccnc3)no2)C(C)C)cc1`, the melting point lay in the range of 87.9 to 89.4 °C.
With `C[C@@H](c1ccc(F)cc1)N1CCN(c2cc(Oc3cccc4[nH]c(=O)c(N)nc34)ncn2)CC1` the figure was 294 to 295 °C.
The value for `CC(=O)Oc1ccccc1C(=O)Nc1ccc2oc(C)nc2c1` was 169 to 171 °C; that for `COc1cc([N+](=O)[O-])ccc1-c1sc(C)nc1C` was 123 to 125 °C.
The value for `CCN(C(=O)c1ccccc1)[C@@H](Cc1c[nH]c2ccccc12)C(=O)OC(=O)c1ccc(N)cc1` was 181 to 183 °C; that for `O=C(OCc1ccccc1)c1ccc(O)cc1O` was 83 to 88 °C; that for `O=C(O)c1cc(-c2ccc(OCc3ccccc3)cc2)nn1Cc1ccccc1` was 207 to 208 °C.
Molecule `CCc1c(C(=O)O)c(C(F)F)nc(C(F)(F)F)c1C(=O)O` came in with a melting point of 237 to 239 °C.
With `CC(C)n1nc(-c2cc(-c3ccccc3)c(N)nc2-c2ccccc2)ccc1=O` the figure was 208 to 209 °C; with `COC(=O)c1nc(N(C)C2CCCCC2)ccc1Oc1nc(OC)cc(OC)n1`, 116 to 118 °C.
As to `Cn1c(=O)c(C(=O)NC2CCCCC2)c(O)c2cc(F)ccc21`, the melting point turned out to be 193 °C.
As to `NNC(=S)c1ccc2ccccc2c1`, the melting point was 166 to 167 °C.
With `Cn1ccnc1Sc1ccc(Nc2c(C#N)cnc3cc(N4CCC(N5CCCC5)CC4)ccc23)cc1Cl` the figure was 125 to 130 °C; with `CC(=O)N1CCC(N(C)C(=O)c2ccc3nonc3c2)CC1`, 173 to 175 °C.
The value for `CN(C(=O)c1ccc2nonc2c1)C1CC=C(F)CC1` (stereo not drawn) was 117 to 118 °C; that for `CC(C)(C)CC(=O)N[C@H]1CC[C@H](CCN2CCN(c3nccc4c3OCC4)CC2)CC1` was 193 °C; that for `CCCCCC(=O)NCc1ccc(C(=O)O)cc1` was 178 to 179 °C.
With `CCCCOc1ccc(S(C)(=O)=O)cc1-c1nc2c(CC)n(CCN3CCOCC3)nc2c(=O)[nH]1` the figure was 235 to 238 °C; with `OCC#CCCCCCCC#Cc1ccc(O)c(O)c1`, 81 to 83 °C; with `CN(Cc1cc(C(F)(F)F)cc(C(F)(F)F)c1)C(=O)c1nc(N)ncc1-c1ccccc1`, 182 °C.
`O=C(NCC(O)c1ccccc1)c1ccccc1` (stereo not drawn) came in with a melting point of 140 to 143 °C.
The value for `NCCNCC(O)COc1ccccc1C(N)=O` (stereo not drawn) was 91 to 93 °C; that for `O=C(c1sccc1-n1cccc1)N1CCOCC1` was 100 °C; that for `COc1cc(NC(=O)OC(C)(C)C)cc(OC)c1SC` was 124 to 126 °C.
The molecule `CS(=O)C1=NS(=O)(=O)c2cc(Cl)ccc2N1` (stereo not drawn) came in with a melting point of 260 to 261 °C.
With `Fc1ccc(Nc2ncnc3cnc(NC4CCC(N5CCOCC5)CC4)nc23)cc1Cl` (stereo not drawn) the figure was 233 to 235 °C.
`NCCCNc1ccc(Cl)nn1` returned a melting point of 125 °C.
With `CCOC(=O)c1ccc2cc(-c3cccc4ccccc34)ccn2c1=O` the figure was 245 to 247 °C; with `COc1ccc(C(O)(Cc2ccncc2)c2cccs2)cc1OC1CCCC1` (stereo not drawn), 57 to 67 °C.
The value for `CN(CC(=O)[C@H](Cc1ccccc1)NC(=O)N1CCOCC1)C(=O)N1CCC[C@H]1C(=O)O` was 75 to 90 °C.
The molecule `CC(C)c1ccc(-c2nc(-c3cccc(C(=O)O)c3)co2)cc1` returned a melting point of 187 to 189 °C.
In turn, `ON=Cc1cc(-c2ccc(O)cc2)c2occc2c1` had a melting point of 192 to 194 °C.
With `Cc1cccc(-c2nc(N)sc2-c2ccnc(-c3ccc(OC(F)(F)F)cc3)c2)n1` the figure was 222 to 224 °C; with `CS(=O)(=O)N1CCN(S(=O)(=O)C=Cc2ccccc2)C(C(=O)NO)C1` (stereo not drawn), 94 to 99 °C; with `CN(Cc1cn(C23CC4CC(CC(C4)C2)C3)nn1)Cc1cccs1`, 66 to 68 °C.
With `CSC(=N)NS(=O)(=O)c1c(Cl)sc(Cl)c1Br` the figure was 113 to 115 °C; with `COc1ccc(-c2cc3ncccc3c(Cl)n2)cc1`, 126 to 127 °C; with `Oc1ccc2ccc(OCc3ccc4ccccc4n3)cc2c1`, 218 to 220 °C.
The value for `COC(=O)C1C=C2c3cccc4[nH]c(Br)c(c34)CC2N(C)C1` (stereo not drawn) was 124 to 125 °C; that for `CCC1=C(C)CN(C(=O)NCC2CCOc3cc(OC)c(S(=O)(=O)NC(=S)NC(C)C)cc32)C1=O` (stereo not drawn) was 153 °C; that for `CC(C)(C)CNc1cc(Cl)nc(NC(C)(C)C)n1` was 110 to 111 °C.
`CC[C@H](N)c1nc2c(C(F)(F)F)cccc2c(O)c1C(=O)Nc1nccs1` gave a melting point of 206 °C.
The value for `O=C(CCc1nc(-c2ccccn2)no1)NC1CCN(Cc2ccc(F)c(Cl)c2)CC1` was 150 °C.
In turn, `CC1(c2ccccc2)C(=O)Nc2cc(Br)cc(Br)c2C1=O` (stereo not drawn) came in with a melting point of 256 to 257 °C.
The value for `Cc1c(F)cc(C(=N)N)c(Oc2ncccc2Oc2cccnc2)c1F` was 213 to 214 °C; that for `O=C(c1ccccc1)c1cnn2cccnc12` was 174 to 175 °C.
The value for `CCOC(=O)CC(NC(=O)CNC(=O)c1csc(NC(=N)N)n1)c1cccnc1` (racemic) was 114 °C.
The value for `Cc1cc(C)c2ncc(N(Cc3cc(C(C)(C)C)c(O)c(C(C)(C)C)c3)C(=O)Nc3ccc(F)cc3F)c(-c3ccccc3Cl)c2c1` was 124 to 126 °C; that for `COC(=O)/C=C\C1C(C(=O)O)C1(C)C` (stereo not drawn) was 106 °C; that for `FC(F)(F)c1cccc(Nc2nccc(-c3cccnc3)n2)c1` was 170 to 171 °C.
In turn, `O=C(CCNC(=O)n1cc(F)c(=O)[nH]c1=O)N1CCOCC1` showed a melting point of 178 to 180 °C.
The value for `O=C(O)c1cn(C2CC2)c2nc3cc(N4CCNC(c5cccs5)C4)c(F)cc3cc2c1=O` (racemic) was 245 °C; that for `CN1CCc2cc(CO)sc2C(c2ccccc2)C1` (stereo not drawn) was 112 °C; that for `COc1cccc(S(=O)(=O)N2c3cc(F)ccc3-c3ccc(F)cc3C2C)c1` (stereo not drawn) was 147 to 149 °C.
With `COc1ccc(C(=O)Nc2cccnc2)cc1Nc1cccc(C(F)(F)F)c1` the figure was 184 to 185 °C; with `O=C(O)c1cnn(-c2nc(-c3cc(C(F)(F)F)cc(C(F)(F)F)c3)cs2)c1C(F)(F)F`, 204 to 205 °C.
With `CC(C)(CCCCCC(=O)CCCCCC1(C(=O)O)CC1)C(=O)O` the figure was 65 to 66 °C; with `OCC1C2OCC(O2)C(OCc2ccccc2)C1O` (stereo not drawn), 111 to 113 °C; with `COc1ccc(CCN(CCC2CCCCC2)C(=O)CCCCC(N)=O)cc1OC`, 158 to 160 °C.
With `CCCCc1c(C(=O)O)cc(Cl)cc1[N+](=O)[O-]`, the melting point was in the range of 218 to 220 °C.
With `CN(CCN(CCC12CC3CC(CC(C3)C1)C2)C(=O)NCCCc1ccncc1)C(=O)CC(C)(C)C`, the melting point was in the range of 101 to 102 °C.
The value for `COC(=O)Cc1ccccc1NC(=S)N(C)C` was 110 to 113 °C; that for `CCCCc1nn(-c2ccccc2C(F)(F)F)c(=O)n1Cc1ccc(-c2ccccc2S(=O)(=O)NC(=O)c2ccccc2Cl)cc1F` was 88 to 90 °C; that for `CCOC(=O)c1nc(-c2ccc(Cl)c(OC)c2F)cc(N)c1SC` was 93 to 94 °C.
The value for `NC(=S)Nc1cc2ccccc2cn1` was 225 to 227 °C; that for `O=C(Nc1ccc(C(=O)Oc2ccccc2)c(Cl)c1)c1ccccc1` was 126 to 128 °C; that for `COc1ccccc1-c1nc(-c2ccccc2)nc(-c2ccccc2O)n1` was 153 to 155 °C.
With `CCC1(C)CC(=NO)C(C)C(C)(CC)N1OC(C)c1ccccc1` (stereo not drawn) the figure was 130 to 145 °C; with `CC(C)[C@H](NC(=O)Cc1csc(N(C)C)n1)C(=O)N[C@@H](Cc1ccccc1)[C@@H](O)C[C@H](Cc1ccccc1)NC(=O)OCc1cncs1`, 157 to 159 °C; with `COc1ccc(-c2nc3c(OC(C)=O)cccc3s2)cc1`, 122 to 124 °C.
Consider `CC(CCCc1ccc(F)cc1)c1cc(O)c2c(c1)OC(C)(C)C1=C2CN(CC(=O)NC(N)=O)CC1` (stereo not drawn), for which the melting point lay in the range of 133 to 134 °C.
The value for `COc1cc2nc(N3CCN(c4nc5ccccc5[nH]4)CC3)nc(N)c2cc1OC` was > 250 °C.
With `COC(=O)c1ccccc1C1=NC(C)(C(C)C)C(=O)N1Sc1ccccc1[N+](=O)[O-]` (stereo not drawn) the figure was 143 to 148 °C; with `CC[C@H]1c2cc(F)ccc2-c2ccccc2N1C(=O)c1ccc(O)cc1`, 103 to 104 °C; with `CN1CCC(O)(c2cc(F)cc(F)c2)C1` (stereo not drawn), 150 °C.
On to `CCn1cc(-c2c(-c3ccccc3)nn3ccncc23)ccc1=O`, for which the melting point fell in the range of 192 to 193 °C.
`COC(=O)c1ccc2[nH]cc(CCCCN3CCN(c4ccc5c(c4)OCCO5)CC3)c2c1` registered a melting point of 177 to 179 °C.
With `CCCOC(=O)c1cccc2c1S[C@@H](c1ccc(OC)cc1)[C@@H](OC(C)=O)C(=O)N2CCN(C)C` (racemic) the figure was 107 to 109 °C; with `CNC(=O)c1cccnc1C`, 69 to 72 °C.
The value for `CCOP(=O)(Cc1ccc(NC(=S)Nc2cc(-c3cc4cc(F)c(F)cc4[nH]3)ccc2OC)cc1)OCC` was 180 to 182 °C; that for `COCCc1nc2c(N)nc3ccccc3c2n1CCOCCNC(=O)c1ccccc1` was 184 to 187 °C; that for `O=C(NCCSCc1cccc(F)c1)c1c(F)cccc1F` was 39 to 41 °C.
The value for `COc1ccc(CCCc2ccc(O)cc2O)c(OC)c1C` was 108 °C.
As for `COc1ccc(C(=O)c2ccc3[nH]c(=O)nc(-c4cccc(Cl)c4)c3c2)cc1`, the melting point amounted to 248 °C.
With `CSc1ccc2cccc(CCNC(=O)C3CC3)c2c1` the figure was 96 to 98 °C.
With `O=C(Cc1ccccc1)NCC(=O)c1ccccc1` the figure was 66 to 77 °C.
The value for `C#CCN(CCC12CC3CC(CC(C3)C1)C2)C(=O)NCCCc1ccncc1` was 152 to 154 °C.

The values are drawn from a melting point compilation (Tetko et al.; mined from patent text by program, amines drawn as free bases though some values may be those of a salt).
